Results on 5 compounds are retold here after patent US20230114728A1 (Venatorx Pharmaceuticals, Inc., priority 2019, published 2023).

Converted amounts (≈) assume the structure as drawn. Where two headings read alike, the source gives them in different places.

Holding throughout (type): cell-based
One test has as its system A. baumannii ATCC 19606. Put plainly: Broth microdilution MIC in CAMHB. The settings on record: Acinetobacter baumannii, ATCC19606; MHB; read-out: Minimum Inhibitory Concentration, A. baumannii ATCC 19606. In short, it runs like this:
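Lowest compound concentration with no visible growth after 16-20 h at 37 °C defines MIC. Plates of 2-fold serial dilutions in cation-adjusted Mueller Hinton broth received 2-8×10^5 CFU/mL of exponentially grown cells, per CLSI methods; panel spans reference, hyper-permeable and efflux-pump-deleted strains.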

A further test concerns E. coli 901C. Put plainly: Broth microdilution MIC in CAMHB. The settings on record: Escherichia coli; E. coli 901C (hyper-permeable); MHB; read-out: Minimum Inhibitory Concentration, E. coli 901C. In short, it runs like this: (§1)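 Colonies from cation-adjusted Mueller Hinton agar are grown in broth (3-5 h, 37° C), adjusted by OD600, and added at 2-8×10^5 CFU/mL to 2-fold compound dilutions. After 16-20 h at 37° C, the lowest concentration without growth is taken as MIC.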
A general note: In broth dilution the organism is exposed to a series of concentrations in liquid medium.

Test [1] deals with K. pneumoniae UMM producing SHV-5 and KPC-2. The experiment in a line: Broth microdilution MIC in CAMHB. The conditions noted are these: Klebsiella pneumoniae, read-out: Minimum Inhibitory Concentration, K. pneumoniae UMM. In short, it runs like this:
as §1

The subject of test [2] is P. aeruginosa (ΔmexAB-oprM). Put plainly: Broth microdilution MIC in CAMHB. The conditions noted are these: Pseudomonas aeruginosa, read-out: Minimum Inhibitory Concentration, P. aeruginosa ΔmexAB-OprM. In short, it runs like this:
as §1

In another test the test system is P. aeruginosa ATCC 35151. The experiment in a line: Broth microdilution MIC in CAMHB. The conditions noted are these: Pseudomonas aeruginosa, ATCC35151; MHB; hyper-permeable strain; read-out: Minimum Inhibitory Concentration, P. aeruginosa ATCC 35151. In short, it runs like this: as §1
Test [3] has as its system N. gonorrhoeae ATCC 49226. The experiment in a line: Liquid broth MIC in Fastidious broth. The conditions noted are these: Neisseria gonorrhoeae, ATCC49226, Fastidious broth. In short, it runs like this:
(§2)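 Colonies were swabbed from chocolate agar after 24 h growth and standardised by optical density at 600 nm. Compounds were serially diluted twofold in Fastidious broth, and bacteria added to give 5×10^5 CFU/mL. After about 24 h at 36 °C in 5% CO2, the lowest concentration allowing under 10% growth was taken as MIC.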

In another test the test system is N. gonorrhoeae FA1090. The experiment in a line: Liquid broth MIC in Fastidious broth. The settings on record: Neisseria gonorrhoeae, Fastidious broth. In short, it runs like this: as §2
The test system of another test is N. gonorrhoeae H041. Put plainly: Liquid broth MIC in Fastidious broth. The settings on record: Neisseria gonorrhoeae. In short, it runs like this:
(§3)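 Strains bearing mosaic PBP2 grown 24 h on chocolate agar (36° C, 5% CO2), suspended in saline and added to 2-fold compound dilutions in Fastidious broth at 5×10^5 CFU/mL. After ~24 hours at 36° C with 5% CO2, MIC taken visually as lowest well with <10% growth relative to full growth.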

The next test concerns N. gonorrhoeae WHO G. Put plainly: Liquid broth MIC in Fastidious broth. The settings on record: Neisseria gonorrhoeae, Fastidious broth. In short, it runs like this: as §2
The subject of the next test is N. gonorrhoeae WHO K. Put plainly: Liquid broth MIC in Fastidious broth. The settings on record: Neisseria gonorrhoeae. In short, it runs like this:
as §3

Another test concerns N. gonorrhoeae WHO L. Put plainly: Liquid broth MIC in Fastidious broth. The conditions noted are these: Neisseria gonorrhoeae, Fastidious broth. In short, it runs like this:
as §2

Another test relates to N. gonorrhoeae WHO Q. Put plainly: Liquid broth MIC in Fastidious broth. The conditions noted are these: Neisseria gonorrhoeae. In short, it runs like this:
as §3

A further test deals with N. gonorrhoeae WHO Z. The experiment in a line: Liquid broth MIC in Fastidious broth. The settings on record: Neisseria gonorrhoeae. In short, it runs like this: as §3
Where [4] appears, read: N. gonorrhoeae ATCC 49226, read-out: Minimum Inhibitory Concentration, ATCC 49226.
[5] abbreviates: N. gonorrhoeae FA1090, read-out: Minimum Inhibitory Concentration, FA1090.
The mark [6] stands for this setting: H041, read-out: Minimum Inhibitory Concentration, H041.
Setting [7] is: N. gonorrhoeae WHO G, read-out: Minimum Inhibitory Concentration, WHO G.
Setting [8] is: read-out: Minimum Inhibitory Concentration, WHO K.
[9] abbreviates: N. gonorrhoeae WHO L, read-out: Minimum Inhibitory Concentration, WHO L.
Setting [10] is: read-out: Minimum Inhibitory Concentration, WHO Q.
Where [11] appears, read: read-out: Minimum Inhibitory Concentration, WHO Z.

`NS(=O)(=O)Nc1ccc(F)c(C(NC(=O)N2CCN(CCF)C(=O)C2=O)C(=O)N[C@H]2Cc3cccc(C(=O)O)c3OB2O)c1` (stereo partly drawn) [Example 198, (3R)-3-(2-(2-fluoro-5-(sulfamoylamino)phenyl)-2-(4-(2-fluoroethyl)-2,3-dioxopiperazine-1-carboxamido)acetamido)-2-hydroxy-3,4-dihydro-2H-benzo[e][1,2]oxaborinine-8-carboxylic acid]: the MIC in the test on A. baumannii ATCC 19606 was more than 128 µg/mL; with E. coli 901C it was less than 0.25 µg/mL; in test [1], 32 to 64 µg/mL (≈ 50.1 to 100 µM); in [2], 2 to 4 µg/mL (≈ 3.13 to 6.27 µM); in the test with P. aeruginosa ATCC 35151, 0.5 to 1 µg/mL (≈ 0.783 to 1.57 µM); in [3] (N. gonorrhoeae strain ATCC 49226, read-out: Minimum Inhibitory Concentration, N. gonorrhoeae ATCC 49226), 16 to 32 µg/mL (≈ 25.1 to 50.1 µM). Also, the MIC was 0.25 to 0.5 µg/mL (≈ 0.392 to 0.783 µM) with N. gonorrhoeae FA1090 (N. gonorrhoeae strain FA1090, read-out: Minimum Inhibitory Concentration, N. gonorrhoeae FA1090); 16 to 32 µg/mL (≈ 25.1 to 50.1 µM) with N. gonorrhoeae H041 (H041, read-out: Minimum Inhibitory Concentration, N. gonorrhoeae H041); 4 to 8 µg/mL (≈ 6.27 to 12.5 µM) in the test on N. gonorrhoeae WHO G (N. gonorrhoeae strain WHO G, read-out: Minimum Inhibitory Concentration, N. gonorrhoeae WHO G); 16 to 32 µg/mL (≈ 25.1 to 50.1 µM) in the test with N. gonorrhoeae WHO K (read-out: Minimum Inhibitory Concentration, N. gonorrhoeae WHO K); more than 64 µg/mL in the test on N. gonorrhoeae WHO L (N. gonorrhoeae strain WHO L, read-out: Minimum Inhibitory Concentration, N. gonorrhoeae WHO L); 16 to 32 µg/mL (≈ 25.1 to 50.1 µM) in the test with N. gonorrhoeae WHO Q (read-out: Minimum Inhibitory Concentration, N. gonorrhoeae WHO Q). In addition, the MIC in the test with N. gonorrhoeae WHO Z (read-out: Minimum Inhibitory Concentration, N. gonorrhoeae WHO Z) lay within 16 to 32 µg/mL (≈ 25.1 to 50.1 µM).
Take `CCN1CCN(C(=O)NC(C(=O)N[C@H]2Cc3cccc(C(=O)O)c3OB2O)c2ccc(C(=O)O)c(Cl)c2Cl)C(=O)C1=O` (stereo partly drawn) [Example 201, (3R)-3-(2-(4-carboxy-2,3-dichlorophenyl)-2-(4-ethyl-2,3-dioxopiperazine-1-carboxamido)acetamido)-2-hydroxy-3,4-dihydro-2H-benzo[e][1,2]oxaborinine-8-carboxylic acid]: the MIC is more than 128 µg/mL in the test on A. baumannii ATCC 19606; 0.5 to 1 µg/mL (≈ 0.805 to 1.61 µM) in the test with E. coli 901C; more than 128 µg/mL in test [1]; 8 to 16 µg/mL (≈ 12.9 to 25.8 µM) in test [2]; 0.5 to 1 µg/mL (≈ 0.805 to 1.61 µM) in the test on P. aeruginosa ATCC 35151; 4 to 8 µg/mL (≈ 6.44 to 12.9 µM) in test [3] (setting [4]). In addition, the MIC was 1 to 2 µg/mL (≈ 1.61 to 3.22 µM) with N. gonorrhoeae FA1090 (setting [5]); more than 64 µg/mL in the test with N. gonorrhoeae H041 (setting [6]); 4 to 8 µg/mL (≈ 6.44 to 12.9 µM) with N. gonorrhoeae WHO G (setting [7]); 16 to 32 µg/mL (≈ 25.8 to 51.5 µM) with N. gonorrhoeae WHO K (setting [8]); more than 64 µg/mL with N. gonorrhoeae WHO L (setting [9]); 16 to 32 µg/mL (≈ 25.8 to 51.5 µM) with N. gonorrhoeae WHO Q (setting [10]). Moreover, in the test with N. gonorrhoeae WHO Z (setting [11]), the MIC was in the range of 16 to 32 µg/mL (≈ 25.8 to 51.5 µM).
As for `CCN1CCN(C(=O)NC(C(=O)N[C@H]2Cc3cccc(C(=O)O)c3OB2O)c2cc(C#N)c(O)cc2F)C(=O)C1=O` (stereo partly drawn) [Example 209, (3R)-3-(2-(5-cyano-2-fluoro-4-hydroxyphenyl)-2-(4-ethyl-2,3-dioxopiperazine-1-carboxamido)acetamido)-2-hydroxy-3,4-dihydro-2H-benzo[e][1,2]oxaborinine-8-carboxylic acid], the MIC with A. baumannii ATCC 19606 was more than 128 µg/mL; with E. coli 901C, less than 0.25 µg/mL; in test [1] it was 32 to 64 µg/mL (≈ 56.4 to 113 µM); in test [2] it was 8 to 16 µg/mL (≈ 14.1 to 28.2 µM); in the test on P. aeruginosa ATCC 35151, less than 0.25 µg/mL; in test [3] (setting [4]), 4 to 8 µg/mL (≈ 7.05 to 14.1 µM). Besides, the MIC was in the range of 0.25 to 0.5 µg/mL (≈ 0.441 to 0.881 µM) in the test on N. gonorrhoeae FA1090 (setting [5]); 16 to 32 µg/mL (≈ 28.2 to 56.4 µM) with N. gonorrhoeae H041 (setting [6]); 4 to 8 µg/mL (≈ 7.05 to 14.1 µM) with N. gonorrhoeae WHO G (setting [7]); 16 to 32 µg/mL (≈ 28.2 to 56.4 µM) with N. gonorrhoeae WHO K (setting [8]); 16 to 32 µg/mL (≈ 28.2 to 56.4 µM) in the test on N. gonorrhoeae WHO L (setting [9]); 16 to 32 µg/mL (≈ 28.2 to 56.4 µM) in the test on N. gonorrhoeae WHO Q (setting [10]). Besides, the MIC with N. gonorrhoeae WHO Z (setting [11]) was 4 to 8 µg/mL (≈ 7.05 to 14.1 µM).
As for `O=C(O)c1cccc2c1OB(O)[C@@H](NC(=O)C(NC(=O)N1CCN(C3CNC3)C(=O)C1=O)c1c(F)cc(O)cc1F)C2` (stereo partly drawn) [Example 212, (3R)-3-(2-(4-(azetidin-3-yl)-2,3-dioxopiperazine-1-carboxamido)-2-(2,6-difluoro-4-hydroxyphenyl)acetamido)-2-hydroxy-3,4-dihydro-2H-benzo[e][1,2]oxaborinine-8-carboxylic acid], the MIC was more than 128 µg/mL with A. baumannii ATCC 19606; 0.5 to 1 µg/mL (≈ 0.851 to 1.7 µM) in the test on E. coli 901C; 8 to 16 µg/mL (≈ 13.6 to 27.2 µM) in test [1]; 8 to 16 µg/mL (≈ 13.6 to 27.2 µM) in test [2]; 0.5 to 1 µg/mL (≈ 0.851 to 1.7 µM) with P. aeruginosa ATCC 35151; 16 to 32 µg/mL (≈ 27.2 to 54.5 µM) in [3] (setting [4]). Also, the MIC with N. gonorrhoeae FA1090 (setting [5]) is 1 to 2 µg/mL (≈ 1.7 to 3.41 µM); with N. gonorrhoeae H041 (setting [6]), more than 64 µg/mL; with N. gonorrhoeae WHO G (setting [7]) it was 16 to 32 µg/mL (≈ 27.2 to 54.5 µM); with N. gonorrhoeae WHO K (setting [8]), more than 64 µg/mL; in the test on N. gonorrhoeae WHO L (setting [9]), more than 64 µg/mL; with N. gonorrhoeae WHO Q (setting [10]), more than 64 µg/mL. In addition, the MIC in the test on N. gonorrhoeae WHO Z (setting [11]) was more than 64 µg/mL.
Take `CCN1CCN(C(=O)NC(C(=O)N[C@H]2Cc3cccc(C(=O)O)c3OB2O)c2c(F)cc(NC(=O)NC)cc2F)C(=O)C1=O` (stereo partly drawn) [Example 213, (3R)-3-(2-(2,6-difluoro-4-(3-methylureido)phenyl)-2-(4-ethyl-2,3-dioxopiperazine-1-carboxamido)acetamido)-2-hydroxy-3,4-dihydro-2H-benzo[e][1,2]oxaborinine-8-carboxylic acid]: the MIC in the test with A. baumannii ATCC 19606 is more than 128 µg/mL; in the test on E. coli 901C, less than 0.25 µg/mL; in [1] it was 32 to 64 µg/mL (≈ 51.9 to 104 µM); in [2], 2 to 4 µg/mL (≈ 3.24 to 6.49 µM); with P. aeruginosa ATCC 35151, 0.5 to 1 µg/mL (≈ 0.811 to 1.62 µM); in test [3] (setting [4]) it was 4 to 8 µg/mL (≈ 6.49 to 13 µM). The MIC is less than 0.125 µg/mL in the test on N. gonorrhoeae FA1090 (setting [5]); more than 64 µg/mL in the test on N. gonorrhoeae H041 (setting [6]); 1 to 2 µg/mL (≈ 1.62 to 3.24 µM) in the test with N. gonorrhoeae WHO G (setting [7]); more than 64 µg/mL in the test on N. gonorrhoeae WHO K (setting [8]); more than 64 µg/mL in the test with N. gonorrhoeae WHO L (setting [9]); more than 64 µg/mL in the test on N. gonorrhoeae WHO Q (setting [10]). Further, the MIC in the test with N. gonorrhoeae WHO Z (setting [11]) was 16 to 32 µg/mL (≈ 26 to 51.9 µM).
